Measured values as given in patent US7399823B1, “Antimicrobial theta defensins and methods of using same” (The Regents of the University of California, priority 2000, dated 2008).
Marks after values point to notes of the source that are not given here. Positions of bridges follow the written chain, without caps; N, C: chain ends. Residues, ends and D or L forms follow the SMILES beside them.

Tests used:
Format in all cases: cell-based
[1] = test system: Staphylococcus aureus 502a; test: Microbicidal suspension assay, killing quantified by colony counts; settings: for % killed: 37 C.
Description: Killing was quantified by colony counts.
Additional antimicrobial assays were conducted on other microbial organisms. […] In FIG. […] Killing was quantified by colony counts. […] The limit of detection (1 colony per plate) was equal to 1×10^3 colony forming units in the incubation mixture.
It has been proposed that salt sensitivity of airway defensins underlies the susceptibility of cystic fibrosis patients to pulmonary infections.
(§1) An acyclic version of theta defensin was also tested for antimicrobial activity. […] Killing activity was quantified by colony counts after 18 hrs.
(§2) The microbicidal activity in the presence of physiological salt concentrations was tested against various microorganisms in various buffers.

[2] = test system: Salmonella typhimurium, PhoP^−; test: as above; settings: 2 hr, 10 mM PIPES, pH 7.4, 5 mM glucose; FIG. 9
[3] = test system: Listeria monocytogenes EDG; test: as above; settings: for % killed: RTD-1 10 mg/ml, 2 h, 37 C.
Candida albicans = test: as above
Escherichia coli ML35 [4] = test: as above; settings: for % killed: 2 h, 37 C.
Description: Additional antimicrobial assays were conducted on other microbial organisms. […] In FIG. 9A, S. aureus 502a was incubated with increasing concentrations of natural or synthetic peptide for 30 min at 37° C. in 10 mM PIPES, pH 7.4, containing 5 mM glucose. Killing was quantified by colony counts. […] The limit of detection (1 colony per plate) was equal to 1×10^3 colony forming units in the incubation mixture.
as §1, §2

[5] = test system: Cryptococcus neoformans 271a; test: as above; settings: for % killed: RTD-1 10 mg/ml, 2 h, 37 C.
Escherichia coli ML35 [6] = test: Agar diffusion assay
Description: (§3) The purified chromatographic peaks were screened for antibacterial activity against Escherichia coli ML35 and Staphylococcus aureus 502a. Briefly, antibacterial activity was screened with an agar diffusion assay using lyophilized samples of HPLC fractions dissolved in 5 μl of 0.01% acetic acid as described by Lehrer et al., J. Immunol. Methods 137:167-173 (1991)).
(§4) Agar diffusion assays and microbicidal suspension assays were used to examine the activity of theta defensin against Staphylococcus aureus 502A, Escherichia coli ML35, Listeria monocytogenes, and Cryptococcus neoformans.

[7] = test system: Staphylococcus aureus 502a; test: Agar diffusion assay
Description: as §3, §4

Cryptococcus neoformans = test: Agar diffusion assay; settings: 10, 30, 100 or 300 μg/ml; agar seeded with 1×10^6 colony forming units
Description: as §4

Listeria monocytogenes = test: Agar diffusion assay; settings: 10, 30, 100 or 300 μg/ml; agar seeded with 1×10^6 colony forming units
Description: as §4

[8] = 2 hr, 10 mM PIPES, pH 7.4, 5 mM glucose, FIG. 9
[9] = 10 mM PIPES, pH 7.4, 5 mM glucose, 150 mM NaCl
[10] = 10, 30, 100 or 300 μg/ml, agar seeded with 1×10^6 colony forming units

CC[C@H](C)[C@@H]1NC(=O)[C@@H]2CSSC[C@H](NC(=O)[C@H](CCCNC(=N)N)NC(=O)[C@@H]3CSSC[C@H](NC1=O)C(=O)N[C@@H]([C@@H](C)O)C(=O)N[C@@H](CCCNC(=N)N)C(=O)NCC(=O)N[C@@H](Cc1ccccc1)C(=O)N3)C(=O)N[C@@H](CC(C)C)C(=O)N[C@H]1CSSC[C@H](NC(=O)[C@H](C(C)C)NC(=O)CNC(=O)[C@H](CCCNC(=N)N)NC(=O)[C@H](CCCNC(=N)N)NC1=O)C(=O)N[C@@H](CCCNC(=N)N)C(=O)N2 [RTD-1] (cyclo(GFCRCLCRRGVCRCICTR); disulfide 3-16, 5-14, 7-12)
effect of NaCl on staphylocidal activity ([1]; 10 μg/ml peptide, 2 h, NaCl concentrations as high as 150 mM): little effect | microbicidal activity (killing) ([1]; 10 mM PIPES, pH 7.4, 5 mM glucose, 37° C., FIG. 9): killed | % killed ([1]; 2 h, 10 mM PIPES, pH 7.4, 5 mM glucose, 150 mM NaCl, 1-2 × 10^6 CFU/ml): >99% | % killed ([1]; 2 h, 10 mM Tris-HCl, pH 7.4, 150 mM NaCl): >99.99% | peptide concentration reducing colony counts to below the level of detection ([1]; 2 h at 37° C. in 10 mM PIPES, pH 7.4): ≥ 4 µg/mL | % killed ([1]; RTD-1 25 mg/ml, 2 h, 10 mM Tris-HCl, pH 7.4, 50% human AB serum): >99* % | microbicidal activity (killing) [2]: killed | microbicidal activity (killing) [3, 8]: killed | % killed [3, 9]: >99.99% | % killed ([3]; 10 mM Tris HCl, pH 7.4, 150 mM NaCl): >99.99% | microbicidal activity (killing) (Candida albicans; [8]): killed | % killed (Candida albicans; RTD-1 10 mg/ml, 2 h, 37 C., 10 mM Tris HCl, pH 7.4, 150 mM NaCl): >98% | microbicidal activity (killing) (Escherichia coli ML35 [4]; [8]): killed | % killed (Escherichia coli ML35 [4]; RTD-1 25 mg/ml, 10 mM Tris-HCl, pH 7.4, 25% human AB serum): >99* % | % killed (Escherichia coli ML35 [4]; RTD-1, 10 mM PIPES, pH 7.4, 5 mM glucose, 150 mM NaCl): >99% | % killed (Escherichia coli ML35 [4]; RTD-1, 10 mM Tris-HCl, pH 7.4, 150 mM NaCl): >99.99% | activity of cyclic form relative to acyclic form (Escherichia coli ML35 [4]; gram negative bacteria (E. coli)): about three times more active | microbicidal activity (killing) [5, 8]: killed | % killed [5, 9]: >99.99% | % killed ([5]; 10 mM Tris-HCl, pH 7.4, 150 mM NaCl): >99.99% | zone of inhibition (Escherichia coli ML35 [6]; [10]): dose dependent increase | antibacterial activity compared with the other leukocyte peptides isolated (Escherichia coli ML35 [6]; screen of purified HPLC peaks): greatest activity | zone of inhibition [7, 10]: dose dependent increase | antibacterial activity compared with the other leukocyte peptides isolated ([7]; screen of purified HPLC peaks): greatest activity | zone of inhibition (Cryptococcus neoformans): dose dependent increase | zone of inhibition (Listeria monocytogenes): dose dependent increase
